Here are results for 26 compounds from BindingDB's records for patent US20250352549 (Avelos Therapeutics, 2025).

SMILES strings stand for the structures.

The assay concerns the target T1, Serine/threonine-protein kinase greatwall (Human, UniProt Q96GX5).
T1 sequence (Q96GX5 whole entry): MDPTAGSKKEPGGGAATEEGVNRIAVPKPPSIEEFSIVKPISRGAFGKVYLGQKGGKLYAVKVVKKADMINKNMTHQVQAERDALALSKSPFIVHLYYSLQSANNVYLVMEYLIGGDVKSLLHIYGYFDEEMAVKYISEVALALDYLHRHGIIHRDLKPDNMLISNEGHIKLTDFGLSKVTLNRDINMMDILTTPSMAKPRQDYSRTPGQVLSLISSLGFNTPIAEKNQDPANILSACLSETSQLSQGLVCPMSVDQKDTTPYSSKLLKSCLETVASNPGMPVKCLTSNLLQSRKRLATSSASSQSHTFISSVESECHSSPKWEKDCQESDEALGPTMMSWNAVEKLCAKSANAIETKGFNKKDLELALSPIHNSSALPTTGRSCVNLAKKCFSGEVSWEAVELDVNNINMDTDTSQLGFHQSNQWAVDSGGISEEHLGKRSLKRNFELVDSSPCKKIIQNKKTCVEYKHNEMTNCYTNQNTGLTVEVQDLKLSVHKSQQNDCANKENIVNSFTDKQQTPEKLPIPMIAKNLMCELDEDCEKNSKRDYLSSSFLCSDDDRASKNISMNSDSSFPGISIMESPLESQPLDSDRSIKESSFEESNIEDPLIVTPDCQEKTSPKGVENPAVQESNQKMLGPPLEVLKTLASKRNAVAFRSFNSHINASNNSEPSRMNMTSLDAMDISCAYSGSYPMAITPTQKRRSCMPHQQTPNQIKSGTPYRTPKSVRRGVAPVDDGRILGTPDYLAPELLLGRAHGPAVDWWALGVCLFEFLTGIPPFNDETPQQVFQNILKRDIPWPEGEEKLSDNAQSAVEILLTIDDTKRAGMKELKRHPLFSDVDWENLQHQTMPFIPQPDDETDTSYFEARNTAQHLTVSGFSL
As to the kind of experiment: MASTL Activity Assay. As for the experimental part: Wild-type human active MASTL (154 pM) was incubated in assay buffer (50 mM HEPES, 100 mM NaCl, 0.1 mM EGTA, 10 mM MgCl2, 0.01% Tween-20, 0.5 mM TCEP, pH 7.5) with biotin tagged 40-mer ENSA peptide (10 nM), test compound and ATP (18 μM) for 60 minutes at room temperature. Test compounds were assayed using a 12-point dose range consisting of a 0, DMSO control and 10 sequential doses consisting from 0.0005, 0.002, 0.005, 0.014, 0.04, 0.12, 0.37, 1.11, 3.33 and 10 μM. The DMSO concentration was the same (1%) in all samples. An equal volume of detection buffer (assay buffer+267.5 pM Ab-K, 1.25 nM SA-D2, 20 mM EDTA and 400 mM KF) was added to stop the reaction to make a final volume of 20 μl, RT for 60 mins. Activity was measured using a plate reader (PerkinElmer EnSight) by the FRET signal generated between SA-D2 (streptavidin-D2) and Ab-K (anti-phospho-Serine 67 ENSA antibody (rabbit polyclonal, using standard techniques by a commercial supplier) conjugated to Cryptate). HTRF reagents (CisBio) were prepared as per the manufacturer recommendations. The 40-mer biotin-tagged ENSA peptide (synthesised by Bionics) used was based around Serine 67 on ENSA ([…]).
`Nc1nc(NC(c2c[nH]c(C(F)(F)F)n2)C2CC2)nc(-c2ccc3[nH]ncc3c2)n1` (stereo unspecified) [US20250352549, Example 32]: the IC50 (commonly the concentration needed to halve the response being measured) is less than 500 nM.

Take `Cc1ncc2ccc(-c3cc(NC(Cc4cccc(Cl)c4Cl)C(N)=O)nc(N)n3)cn12` (stereo unspecified) [US20250352549, Example 148]: the IC50 was less than 500 nM.

`Cn1ncc2cc(-c3nc(N)nc(NC(C)(C)c4c[nH]c(C(F)(F)F)n4)n3)ccc21` [US20250352549, Example 46] came in with a concentration for half-maximal inhibition (IC50) of less than 500 nM.

Turning to `CCC(Nc1nc(N)nc(-c2ccc3[nH]ncc3c2)n1)c1c[nH]c(C(F)(F)F)n1` (stereo unspecified) [US20250352549, Example 8], the IC50 is less than 500 nM.

In the case of `CC(C)C(Nc1nc(N)nc(-c2ccc3[nH]ncc3c2)n1)c1c[nH]c(C(F)(F)F)n1` (stereo unspecified) [US20250352549, Example 24], the IC50 was less than 500 nM.

Consider `CC(C)(Cc1cccc(Cl)c1Cl)Nc1nc(N)nc(-c2ccc3cnc(N)n3c2)n1` [US20250352549, Example 41], for which the IC50 is less than 500 nM.

As for `CC(C)C(Nc1nc(N)nc(-c2ccc3cn[nH]c3c2)n1)c1ccn(C(F)F)n1` (stereo unspecified) [US20250352549, Example 167], the half-inhibitory concentration (IC50) was less than 500 nM.

Take `Cc1ncc2ccc(-c3cc(NCC(N)c4cccc(Cl)c4Cl)nc(N)n3)cn12` (stereo unspecified) [US20250352549, Example 16]: the 50% inhibitory concentration (IC50) is less than 500 nM.

Compound `CNC(CNc1cc(-c2ccc3cnc(C)n3c2)nc(N)n1)c1cccc(Cl)c1Cl` (stereo unspecified) [US20250352549, Example 17] displayed a half-inhibitory concentration (IC50) of less than 500 nM.

As to `Cc1ncc2ccc(-c3cc(NC(Cc4cccc(F)c4F)C(=O)O)nc(N)n3)cn12` (stereo unspecified) [US20250352549, Example 144], the IC50 was less than 500 nM.

As for `CC(=O)NC(CNc1cc(-c2ccc3cnc(C)n3c2)nc(N)n1)c1cccc(Cl)c1Cl` (stereo unspecified) [US20250352549, Example 18], the IC50 is less than 500 nM.

`Cc1ncc2ccc(-c3nc(C#N)nc(NC(C)(C)c4ccn(C(F)F)n4)n3)cn12` [US20250352549, Example 12] returned an IC50 greater than 1000 nM.

The compound `Cc1ncc2ccc(-c3nc(N)nc(NC(C)(C)c4ccn(CCN)n4)n3)cn12` [US20250352549, Example 175] displayed an IC50 of less than 500 nM.

`[2H]C([2H])([2H])Nc1nc(NC(c2c[nH]c(C(F)(F)F)n2)C(C)C)nc(-c2ccc3cnn(C)c3c2)n1` (stereo unspecified) [US20250352549, Example 31] came in with an IC50 of less than 500 nM.

Consider `[2H]C([2H])([2H])Nc1nc(NC(C)(C)c2ccn(C(F)F)n2)nc(-c2ccc3cnc(N)n3c2)n1` [US20250352549, Example 30], for which the IC50 is less than 500 nM.

Take `Cc1ncc2ccc(-c3nc(C#N)nc(NC(Cc4cccc(Cl)c4Cl)C(=O)O)n3)cn12` (stereo unspecified) [US20250352549, Example 15]: the IC50 was greater than 1000 nM.

Take `Cc1ncc2ccc(-c3cc(NC(c4c[nH]c(C(F)(F)F)n4)C(C)C)nc(N)n3)cn12` (stereo unspecified) [US20250352549, Example 150]: the IC50 was less than 500 nM.

In the case of `CC(C)CC(Nc1nc(N)nc(-c2ccc3[nH]ncc3c2)n1)c1c[nH]c(C(F)(F)F)n1` (stereo unspecified) [US20250352549, Example 43], the IC50 entry is “in the range around 750 nM”.

For the compound `Cn1ncc2ccc(-c3nc(N)nc(NC(C)(C)c4c[nH]c(C(F)(F)F)n4)n3)cc21` [US20250352549, Example 174], the IC50 was less than 500 nM.

For the compound `Cc1ncc2ccc(-c3nc(N)nc(NCc4nc(C(F)(F)F)no4)n3)cn12` [US20250352549, Example 159], the IC50 result was “in the range around 750 nM”.

For the compound `COC(=O)C(Cc1cccc(Cl)c1Cl)Nc1nc(N)nc(-c2ccc3cnc(C)n3c2)n1` (stereo unspecified) [US20250352549, Example 4], the IC50 was less than 500 nM.

`CNc1nc(NC(c2ccn(C(F)F)n2)C(C)C)nc(-c2ccc3cn[nH]c3c2)n1` (stereo unspecified) [US20250352549, Example 171] returned a concentration for half-maximal inhibition (IC50) of less than 500 nM.

`CONC(=O)C(Cc1cccc(Cl)c1Cl)Nc1nc(N)nc(-c2ccc3cnc(C)n3c2)n1` (stereo unspecified) [US20250352549, Example 20] came in with a half-inhibitory concentration (IC50) of less than 500 nM.

In turn, `Cc1ncc2ccc(-c3nc(N)nc(NC(Cc4cccc(Cl)c4Cl)c4nnn[nH]4)n3)cn12` (stereo unspecified) [US20250352549, Example 21] came in with a half-maximal inhibitory concentration (IC50) of less than 500 nM.

With `Cc1ncc2ccc(-c3nc(N)nc(NC(Cc4cccc(Cl)c4Cl)c4ncno4)n3)cn12` (stereo unspecified) [US20250352549, Example 23], the IC50 is greater than 1000 nM.

The compound `CNc1nc(NC(C)(C)c2ccn(C(F)F)n2)nc(-c2ccc3cnn(C)c3c2)n1` [US20250352549, Example 172] returned an IC50 of less than 500 nM.
